Blank lines part the entries; values can stand above or below the molecule they belong to.
Tested on: 885724-159-R-J1-PDC complex spheroid viability
Assay: Anticancer human tumor 885724-159-R-J1-PDC patient-derived pancreatic adenocarcinoma cell line growth inhibition [GQUAD]
Conditions: for IC50: curve of first compound; for viability, T/C: stronger effect = lower value
How it was run: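 Multi-cell-type spheroids of tumor cells with HUVEC and mesenchymal stem cells, treated with drug combinations. Concentrations descend in half-log steps from near clinical Cmax, or from 10 microM where Cmax is unknown; viability read-out.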

[1] = second compound 0.0316 µM, first compound 0.0316 µM
[2] = second compound 0.0316 µM, first compound 0.1 µM
[3] = second compound 0.0316 µM, first compound 0.316 µM
[4] = second compound 0.0316 µM, first compound 1 µM
[5] = second compound 0.0316 µM, first compound 3.16 µM
[6] = second compound 0.0316 µM, first compound 10 µM
[7] = second compound 0.1 µM, first compound 0.0316 µM
[8] = second compound 0.1 µM, first compound 0.1 µM
[9] = second compound 0.1 µM, first compound 0.316 µM
[10] = second compound 0.1 µM, first compound 1 µM
[11] = second compound 0.1 µM, first compound 3.16 µM
[12] = second compound 0.1 µM, first compound 10 µM
[13] = second compound 0.316 µM, first compound 0.0316 µM
[14] = second compound 0.316 µM, first compound 0.1 µM
[15] = second compound 0.316 µM, first compound 0.316 µM
[16] = second compound 0.316 µM, first compound 1 µM
[17] = second compound 0.316 µM, first compound 3.16 µM
[18] = second compound 0.316 µM, first compound 10 µM
[19] = second compound 1 µM, first compound 0.0316 µM
[20] = second compound 1 µM, first compound 0.1 µM
[21] = second compound 1 µM, first compound 0.316 µM
[22] = second compound 1 µM, first compound 1 µM
[23] = second compound 1 µM, first compound 3.16 µM
[24] = second compound 1 µM, first compound 10 µM
[25] = second compound 3.16 µM, first compound 0.0316 µM
[26] = second compound 3.16 µM, first compound 0.1 µM
[27] = second compound 3.16 µM, first compound 0.316 µM
[28] = second compound 3.16 µM, first compound 1 µM
[29] = second compound 3.16 µM, first compound 3.16 µM
[30] = second compound 3.16 µM, first compound 10 µM
[31] = second compound 10 µM, first compound 0.0316 µM
[32] = second compound 10 µM, first compound 0.1 µM
[33] = second compound 10 µM, first compound 0.316 µM
[34] = second compound 10 µM, first compound 1 µM
[35] = second compound 10 µM, first compound 3.16 µM
[36] = second compound 10 µM, first compound 10 µM
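Further: spheroids exposed to agents for seven days before readout.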
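Wherever viability, T/C is given: percent of vehicle control viability where 100% = DMSO wells.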

IC50 (second compound 0.0316 µM): 1.12 µM | IC50 (second compound 0.1 µM): 1.14 µM | IC50 (second compound 0.316 µM): 0.986 µM | IC50 (second compound 1 µM): 0.293 µM | IC50 (second compound 3.16 µM): 0.184 µM | IC50 (second compound 10 µM): 0.196 µM
Structure (SMILES): CC1COCCN1c1cc(C2(O)CC3CCC(C2)O3)c2cnn(-c3ccn[nH]3)c2n1 (stereo not drawn) + Cc1cnc(CNC(=O)c2c(=O)c3ccc(N4CCCN(C)CC4)nc3n3c2sc2ccccc23)cn1
viability, T/C [1]: 96.9% | viability, T/C [2]: 71% | viability, T/C [3]: 63.3% | viability, T/C [4]: 52.9% | viability, T/C [5]: 42.7% | viability, T/C [6]: 30.8% | viability, T/C [7]: 91.1% | viability, T/C [8]: 83.7% | viability, T/C [9]: 68.3% | viability, T/C [10]: 51.4% | viability, T/C [11]: 37.8% | viability, T/C [12]: 27.9% | viability, T/C [13]: 83.8% | viability, T/C [14]: 81.5% | viability, T/C [15]: 68.5% | viability, T/C [16]: 48% | viability, T/C [17]: 35% | viability, T/C [18]: 22.4% | viability, T/C [19]: 79.7% | viability, T/C [20]: 59.3% | viability, T/C [21]: 48.7% | viability, T/C [22]: 39.1% | viability, T/C [23]: 27.5% | viability, T/C [24]: 17.9% | viability, T/C [25]: 72.1% | viability, T/C [26]: 56.5% | viability, T/C [27]: 43.8% | viability, T/C [28]: 32.4% | viability, T/C [29]: 19% | viability, T/C [30]: 13.8% | viability, T/C [31]: 61.5% | viability, T/C [32]: 59.2% | viability, T/C [33]: 43.4% | viability, T/C [34]: 30.1% | viability, T/C [35]: 19.1% | viability, T/C [36]: 12.4%

IC50 (second compound 0.0316 µM): > 10 µM | IC50 (second compound 0.1 µM): > 10 µM | IC50 (second compound 0.316 µM): > 10 µM | IC50 (second compound 1 µM): > 10 µM | IC50 (second compound 3.16 µM): > 10 µM | IC50 (second compound 10 µM): > 10 µM
Structure (SMILES): CC1COCCN1c1cc(C2(S(C)(=N)=O)CC2)nc(-c2ccnc3[nH]ccc23)n1 (stereo not drawn) + Cc1cnc(CNC(=O)c2c(=O)c3ccc(N4CCCN(C)CC4)nc3n3c2sc2ccccc23)cn1
viability, T/C [1]: 101% | viability, T/C [2]: 105% | viability, T/C [3]: 110% | viability, T/C [4]: 106% | viability, T/C [5]: 81.5% | viability, T/C [6]: 92.3% | viability, T/C [7]: 118% | viability, T/C [8]: 105% | viability, T/C [9]: 116% | viability, T/C [10]: 108% | viability, T/C [11]: 103% | viability, T/C [12]: 91.2% | viability, T/C [13]: 114% | viability, T/C [14]: 99% | viability, T/C [15]: 98.3% | viability, T/C [16]: 87.3% | viability, T/C [17]: 86% | viability, T/C [18]: 86.7% | viability, T/C [19]: 93.5% | viability, T/C [20]: 78.5% | viability, T/C [21]: 81.6% | viability, T/C [22]: 87.2% | viability, T/C [23]: 90.7% | viability, T/C [24]: 67.1% | viability, T/C [25]: 82% | viability, T/C [26]: 80.4% | viability, T/C [27]: 70.5% | viability, T/C [28]: 79.8% | viability, T/C [29]: 83% | viability, T/C [30]: 60.2% | viability, T/C [31]: 72.8% | viability, T/C [32]: 73.4% | viability, T/C [33]: 72.6% | viability, T/C [34]: 72.1% | viability, T/C [35]: 78% | viability, T/C [36]: 59.5%

IC50 (second compound 0.0316 µM): 5.43 µM | IC50 (second compound 0.1 µM): 6.18 µM | IC50 (second compound 0.316 µM): 4.57 µM | IC50 (second compound 1 µM): 4.18 µM | IC50 (second compound 3.16 µM): 2.87 µM | IC50 (second compound 10 µM): 2.36 µM
Structure (SMILES): COc1ccc([C@@H](O)c2cc(-c3ncnc4cc(N5CCOCC5)ccc34)c(F)cc2Cl)nn1 + Cc1cnc(CNC(=O)c2c(=O)c3ccc(N4CCCN(C)CC4)nc3n3c2sc2ccccc23)cn1
viability, T/C [1]: 107% | viability, T/C [2]: 112% | viability, T/C [3]: 91.5% | viability, T/C [4]: 92.3% | viability, T/C [5]: 61.6% | viability, T/C [6]: 34.9% | viability, T/C [7]: 109% | viability, T/C [8]: 96.7% | viability, T/C [9]: 88.1% | viability, T/C [10]: 88.8% | viability, T/C [11]: 67.5% | viability, T/C [12]: 37% | viability, T/C [13]: 104% | viability, T/C [14]: 98.9% | viability, T/C [15]: 102% | viability, T/C [16]: 82.9% | viability, T/C [17]: 58.8% | viability, T/C [18]: 32.9% | viability, T/C [19]: 93.5% | viability, T/C [20]: 81.5% | viability, T/C [21]: 75.9% | viability, T/C [22]: 75.7% | viability, T/C [23]: 51.9% | viability, T/C [24]: 35.1% | viability, T/C [25]: 78.6% | viability, T/C [26]: 71.2% | viability, T/C [27]: 70.4% | viability, T/C [28]: 62.4% | viability, T/C [29]: 49.9% | viability, T/C [30]: 24.6% | viability, T/C [31]: 73.2% | viability, T/C [32]: 77.9% | viability, T/C [33]: 67.6% | viability, T/C [34]: 59.7% | viability, T/C [35]: 47.5% | viability, T/C [36]: 21.2%

IC50 (second compound 0.0316 µM): > 10 µM | IC50 (second compound 0.1 µM): > 10 µM | IC50 (second compound 0.316 µM): > 10 µM | IC50 (second compound 1 µM): > 10 µM | IC50 (second compound 3.16 µM): > 10 µM | IC50 (second compound 10 µM): > 10 µM
Structure (SMILES): O=C(c1cc(Cc2n[nH]c(=O)c3ccccc23)ccc1F)N1CCN(C(=O)C2CC2)CC1 + Cc1cnc(CNC(=O)c2c(=O)c3ccc(N4CCCN(C)CC4)nc3n3c2sc2ccccc23)cn1
viability, T/C [1]: 97.6% | viability, T/C [2]: 96.7% | viability, T/C [3]: 98.6% | viability, T/C [4]: 99.2% | viability, T/C [5]: 87.3% | viability, T/C [6]: 90.8% | viability, T/C [7]: 115% | viability, T/C [8]: 109% | viability, T/C [9]: 105% | viability, T/C [10]: 90.6% | viability, T/C [11]: 84.6% | viability, T/C [12]: 83.5% | viability, T/C [13]: 88% | viability, T/C [14]: 93.7% | viability, T/C [15]: 88.9% | viability, T/C [16]: 85.5% | viability, T/C [17]: 85.5% | viability, T/C [18]: 77% | viability, T/C [19]: 87.8% | viability, T/C [20]: 83.2% | viability, T/C [21]: 78.8% | viability, T/C [22]: 77.7% | viability, T/C [23]: 87% | viability, T/C [24]: 65.3% | viability, T/C [25]: 78.2% | viability, T/C [26]: 80.3% | viability, T/C [27]: 78.2% | viability, T/C [28]: 74% | viability, T/C [29]: 76.2% | viability, T/C [30]: 57.4% | viability, T/C [31]: 71.7% | viability, T/C [32]: 70.7% | viability, T/C [33]: 70.9% | viability, T/C [34]: 73.1% | viability, T/C [35]: 64.8% | viability, T/C [36]: 66.2%

Reference: PubChem BioAssay AID2060502 (Molecular Pharmacology Branch, DTP, NCI, 2025)
